Test results as given in ChEMBL document CHEMBL2062419, “Synthesis and antiviral activities of hexadecyloxypropyl prodrugs of acyclic nucleoside phosphonates containing guanine or hypoxanthine and a (S)-HPMP or PEE acyclic moiety” (Eur J Med Chem, 2012).
Calls of active or inactive are those of the source. The calls are words filed in the database; no cut-off is given here.

Assays:
Human alphaherpesvirus 3 [1] = experiment: Antiviral activity against thymidine kinase negative VZV YS/R infected in HEL cells by plaque formation assay; type: functional, organism-based; details: Human alphaherpesvirus 3, YS/R
Human alphaherpesvirus 1 [2] = experiment: Antiviral activity against thymidine kinase negative and ACV resistant HSV1 KOS infected in HEL cells by viral CPE assay; type: functional, organism-based; details: Human alphaherpesvirus 1, KOS
Punta Toro virus = experiment: Antiviral activity against Punta Toro virus by viral CPE assay; type: functional, organism-based
Human alphaherpesvirus 2 = experiment: Antiviral activity against HSV2 G infected in HEL cells by viral CPE assay; type: functional, organism-based; details: Human alphaherpesvirus 2, strain G
[3] = Selectivity index, ratio of cytotoxic CC50 for HEL cells to EC50 for HSV2 G
Felid alphaherpesvirus 1 = experiment: Antiviral activity against Feline herpesvirus infected in CRFK cells by viral CPE assay; type: functional, organism-based; details: Felid alphaherpesvirus 1, CRFK
[4] = tested on: Respiratory syncytial virus; experiment: Antiviral activity against Respiratory syncytial virus Long by viral CPE assay; type: functional, organism-based
[5] = Selectivity index, ratio of cytotoxic CC50 for HEL cells to EC50 for ACV resistant HSV1 KOS
Coxsackievirus B4 = experiment: Antiviral activity against Human coxsackievirus B4 by viral CPE assay; type: functional, organism-based
Human alphaherpesvirus 3 [6] = experiment: Antiviral activity against thymidine kinase positive VZV OKa infected in HEL cells by plaque formation assay; type: functional, cell-based, Human herpesvirus 3 strain Oka vaccine; details: Human alphaherpesvirus 3, OKa
Human betaherpesvirus 5 [7] = experiment: Antiviral activity against HCMV Davis infected in HEL cells by viral CPE assay; type: functional, organism-based; details: Human betaherpesvirus 5, Davis
[8] = Selectivity index, ratio of cytotoxic CC50 for HEL cells to EC50 for VZV YS
[9] = tested on: Mammalian orthoreovirus 1; experiment: Antiviral activity against Reovirus 1 by viral CPE assay; type: functional, organism-based
Human betaherpesvirus 5 [10] = experiment: Antiviral activity against HCMV AD169 infected in HEL cells by viral CPE assay; type: functional, organism-based; details: Human betaherpesvirus 5, AD169, HEL
Sindbis virus = experiment: Antiviral activity against Sindbis virus by viral CPE assay; type: functional, organism-based
[11] = Selectivity index, ratio of cytotoxic CC50 for HEL cells to EC50 for Vaccinia virus Lederie; type: toxicity, cell-based; details: human, read-out: Ratio CC50/EC50
[12] = Selectivity index, ratio of cytotoxic CC50 for HEL cells to EC50 for VZV Oka
[13] = Cytotoxicity against HEL cells assessed as effect on cell morphology incubated for 3 days by microscopy; type: cell-based; details: human
[14] = tested on: Vesicular stomatitis virus; experiment: Antiviral activity against VSV by viral CPE assay; type: functional, organism-based
Human alphaherpesvirus 3 [15] = experiment: Antiviral activity against thymidine kinase positive VZV YS infected in HEL cells by plaque formation assay; type: functional, organism-based; details: Human alphaherpesvirus 3, YS
Vaccinia virus = experiment: Antiviral activity against Vaccinia virus Lederie infected in HEL cells by viral CPE assay; type: functional, organism-based; details: Orthopoxvirus vaccinia
[16] = tested on: Human immunodeficiency virus 1; experiment: Antiviral activity against HIV1 3B infected in human CEM cells assessed as reduction in virus-induced CEM giant cell formation incubated for 4 days at 37 degC by microscopy; type: functional, organism-based; details: CCRF-CEM
HEL = experiment: Cytotoxicity against HEL cells assessed as effect on cell growth incubated for 3 days by Coulter counter assay; type: cell-based; details: human, 72 h
Human respirovirus 3 = experiment: Antiviral activity against Human parainfluenza virus 3 by viral CPE assay; type: functional, organism-based
[17] = Selectivity index, ratio of cytotoxic CC50 for HEL cells to EC50 for VZV 07/01
[18] = Selectivity index, ratio of cytotoxic CC50 for HEL cells to EC50 for HCMV AD169
[19] = Selectivity index, ratio of cytotoxic CC50 for HEL cells to EC50 for HCMV Davis
Human alphaherpesvirus 1 [20] = experiment: Antiviral activity against HSV1 KOS infected in HEL cells by viral CPE assay; type: functional, organism-based; details: Human alphaherpesvirus 1, KOS
[21] = tested on: Human immunodeficiency virus 2; experiment: Antiviral activity against HIV2 ROD infected in human CEM cells assessed as reduction in virus-induced CEM giant cell formation incubated for 4 days at 37 degC by microscopy; type: functional, organism-based; details: ISOLATE ROD, CCRF-CEM
[22] = Selectivity index, ratio of cytotoxic CC50 for HEL cells to EC50 for VZV YS/R
[23] = Selectivity index, ratio of cytotoxic CC50 for HEL cells to EC50 for HSV1 KOS
Human alphaherpesvirus 3 [24] = experiment: Antiviral activity against thymidine kinase negative VZV 07/01 infected in HEL cells by plaque formation assay; type: functional, organism-based; details: Human alphaherpesvirus 3, 07/01, HEL
[25] = Selectivity index, ratio of cytotoxic CC50 for HEL cells to EC50 for Feline herpesvirus; type: toxicity, cell-based; details: human, read-out: Ratio CC50/EC50

SMILES | EC50 (Human alphaherpesvirus 3 [1]) [nM] | EC50 (Human alphaherpesvirus 1 [2]) [nM] | EC50 (Human alphaherpesvirus 2) [nM] | Ratio CC50/EC50 [3] | EC50 (Felid alphaherpesvirus 1) [nM] | Ratio CC50/EC50 [5] | EC50 (Human alphaherpesvirus 3 [6]) [nM] | EC50 (Human betaherpesvirus 5 [7]) [nM] | EC50 (Human betaherpesvirus 5 [10]) [nM] | selectivity ratio [11] | Ratio CC50/EC50 [12] | MCC at 72 h [13] [µM] | EC50 (Vaccinia virus) [nM] | CC50 (HEL) [nM] | Ratio CC50/EC50 [17] | Ratio CC50/EC50 [18] | Ratio CC50/EC50 [19] | EC50 (Human alphaherpesvirus 1 [20]) [nM] | Ratio CC50/EC50 [23] | EC50 (Human alphaherpesvirus 3 [24]) [nM] | other results
CCCCCCCCCCCCCCCCOCCCOP(=O)(CO[C@H](CO)Cn1cnc2c(=O)[nH]c(N)nc21)OCCCOCCCCCCCCCCCCCCCC | 2000 | 30500 | 23200 | >5 | > 113000 | >4 | 3900 | 10100 | 11900 | > 2.5 | >29 | ≥ 22.6 | 44700 | > 113000 | >81 | >9 | >11 | 11900 | >9 | 1400 | Activity (Punta Toro virus): inactive; Activity [4]: inactive; Activity (Coxsackievirus B4): inactive; Ratio CC50/EC50 [8]: >94; Activity [9]: inactive; Activity (Sindbis virus): inactive; Activity [14]: inactive; EC50 (Human alphaherpesvirus 3 [15]): 1200 nM; Activity [16]: inactive; Activity (Human respirovirus 3): inactive; Activity [21]: inactive; Ratio CC50/EC50 [22]: >57
CCCCCCCCCCCCCCCCOCCCOP1(=O)CO[C@@H](Cn2cnc3c(=O)[nH]c(N)nc32)CO1 (mixture of isomers) | 5 | 90 | 80 | 238 | 430 | 211 | 7 | 2 | 5 | 146 | 2700 | ≥ 171 | 130 | 19000 | 3800 | 3800 | 9500 | 34 | 559 | 5 | Activity (Punta Toro virus): inactive; Activity [4]: inactive; Activity (Coxsackievirus B4): inactive; Ratio CC50/EC50 [8]: 19000; Activity [9]: inactive; Activity (Sindbis virus): inactive; Activity [14]: inactive; EC50 (Human alphaherpesvirus 3 [15]): 1 nM; selectivity ratio [25]: 398; Activity [16]: inactive; Activity (Human respirovirus 3): inactive; Activity [21]: inactive; Ratio CC50/EC50 [22]: 3800
Nc1nc2c(ncn2C[C@H]2COP(=O)(O)CO2)c(=O)[nH]1 | – | 500 | 660 | 26 | 900 | 34 | 100 | 1600 | 1500 | 17 | 170 | > 100 | 1000 | 17000 | 74 | 11 | 11 | 660 | 26 | 230 | selectivity ratio [25]: 96
